Laboratory results published in PubChem BioAssay (NCI).
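Grown in 96-well plates, cells were treated for 48 hours with each compound at five concentrations. Insufficient inhibition: endpoint recorded as highest concentration tested. TGI marks complete inhibition of growth.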

Experiments:
Experiment in all cases: NCI anticancer screen, dose series, 48 h
LOX IMVI melanoma = test system: LOX IMVI melanoma
OVCAR-4 ovarian = test system: OVCAR-4 ovarian
OVCAR-8 ovarian = test system: OVCAR-8 ovarian
SK-OV-3 ovarian = test system: SK-OV-3 ovarian
OVCAR-5 ovarian = test system: OVCAR-5 ovarian
A498 renal = test system: A498 renal
A549 NSCLC = test system: A549 NSCLC
SF-268 CNS = test system: SF-268 CNS
HCT-116 colon = test system: HCT-116 colon
UO-31 renal = test system: UO-31 renal
ACHN renal = test system: ACHN renal
NCI-H460 lung = test system: NCI-H460 lung
HCT-15 colon = test system: HCT-15 colon
U251 CNS = test system: U251 CNS
RPMI-8226 leukemia = test system: RPMI-8226 leukemia
NCI-H226 lung = test system: NCI-H226 lung
SNB-75 CNS = test system: SNB-75 CNS
SW-620 colon = test system: SW-620 colon
MCF7 breast = test system: MCF7 breast
MDA-MB-231 breast = test system: MDA-MB-231 breast

| SMILES | TGI (LOX IMVI melanoma) [µM] | TGI (OVCAR-4 ovarian) [µM] | TGI (OVCAR-8 ovarian) [µM] | TGI (SK-OV-3 ovarian) [µM] | TGI (OVCAR-5 ovarian) [µM] | TGI (A498 renal) [µM] | TGI (A549 NSCLC) [µM] | TGI (SF-268 CNS) [µM] | TGI (HCT-116 colon) [µM] | TGI (UO-31 renal) [µM] | TGI (ACHN renal) [µM] | TGI (NCI-H460 lung) [µM] | TGI (HCT-15 colon) [µM] | TGI (U251 CNS) [µM] | TGI (RPMI-8226 leukemia) [µM] | TGI (NCI-H226 lung) [µM] | TGI (SNB-75 CNS) [µM] | TGI (SW-620 colon) [µM] | TGI (MCF7 breast) [µM] | TGI (MDA-MB-231 breast) [µM] |
| --- | --- | --- | --- | --- | --- | --- | --- | --- | --- | --- | --- | --- | --- | --- | --- | --- | --- | --- | --- | --- |
| CCc1cccc(CC)c1NC(=O)C1=C(C)NC(C)=C(C(=O)Nc2c(CC)cccc2CC)C1c1ccc2c(c1)OCO2 | 26 | 42.9 | 34.7 | 60.6 | 31.7 | 38.9 | 66.5 | 35.9 | 35.7 | 30.8 | 39 | 28.6 | 26.8 | 27.4 | > 100 | 28.6 | 38.1 | 31.5 | – | – |
| COC(=O)c1nc(-c2nc(CCNC(=O)OC(C)(C)C)sc2Cl)sc1Cl | – | – | > 100 | > 100 | > 100 | > 100 | > 100 | > 100 | > 100 | > 100 | > 100 | > 100 | > 100 | > 100 | > 100 | > 100 | > 100 | > 100 | > 100 | – |
| O=C(NCCNCCNC(=O)C(F)(F)F)C(F)(F)F | > 100 | > 100 | > 100 | > 100 | > 100 | – | > 100 | > 100 | > 100 | > 100 | > 100 | – | > 100 | > 100 | > 100 | > 100 | – | > 100 | > 100 | > 100 |
| CSc1nc2c(c(O)c(C)c(=O)n2C2OCC(OC(C)=O)C(OC(C)=O)C2OC(C)=O)c(=O)n1C (stereo not drawn) | > 100 | > 100 | > 100 | > 100 | > 100 | > 100 | > 100 | > 100 | > 100 | > 100 | > 100 | > 100 | > 100 | > 100 | > 100 | > 100 | > 100 | > 100 | – | – |
| CC(=O)N/N=C1/CC[C@@]2(C)C(=CC[C@H]3C4CCC(C(C)CCCC(C)C)[C@@]4(C)CCC32)C1(C)C (stereo partly drawn) | > 100 | > 100 | > 100 | > 100 | > 100 | – | > 100 | > 100 | > 100 | > 100 | > 100 | > 100 | > 100 | > 100 | > 100 | > 100 | > 100 | > 100 | > 100 | – |
| CCN(CC)Cc1cc(Nc2c3ccccc3nc3c4ccccc4n(C)c23)ccc1O | 9.1 | 27.4 | 15.6 | 31.6 | 21.9 | 27.8 | 28.2 | 52.4 | 19.5 | 22.8 | 24 | 24.5 | 22.8 | 22.7 | 15.3 | 57.4 | 27.3 | 18.6 | – | – |
| Cc1cnoc1NS(=O)(=O)c1ccc(Nc2nnc(/C=C/c3c(O)ccc4ccccc34)c(=O)n2N)cc1 | 53.9 | > 100 | > 100 | > 100 | 77.9 | – | > 100 | > 100 | 55.9 | > 100 | 55.1 | – | 61.5 | – | 71.6 | – | 77 | > 100 | 47.5 | – |
| COC(=O)C1=C(O)CCCC(CCC(C)=O)=C1 | > 100 | > 100 | > 100 | > 100 | > 100 | > 100 | > 100 | > 100 | 36.1 | > 100 | > 100 | > 100 | > 100 | > 100 | > 100 | > 100 | > 100 | > 100 | – | > 100 |
| Cc1nc2c(n1CCN(C)C)C(=O)c1ccccc1C2=O | 39.1 | 29.3 | 43.1 | > 100 | – | – | 52.8 | 72 | 33 | 49 | 31.5 | 45.5 | 26 | 32.2 | – | > 100 | > 100 | 29 | – | – |
| CC1C=C[C@H](Sc2ccccc2)CC[C@@]1(C)O (stereo partly drawn) | > 100 | – | > 100 | > 100 | > 100 | > 100 | > 100 | – | > 100 | > 100 | > 100 | > 100 | > 100 | > 100 | > 100 | > 100 | > 100 | > 100 | – | – |
| Cn1nc2ccc3nccc(N(CCO)CCO)c3c2n1 | > 100 | – | > 100 | > 100 | > 100 | > 100 | > 100 | > 100 | > 100 | > 100 | > 100 | > 100 | > 100 | > 100 | > 100 | > 100 | > 100 | > 100 | – | – |
| CCC1(N=[N+]=[N-])C(=O)c2ccccc2N(c2ccccc2)C1=O (stereo not drawn) | > 100 | > 100 | > 100 | > 100 | > 100 | > 100 | > 100 | > 100 | > 100 | > 100 | > 100 | > 100 | > 100 | > 100 | – | – | > 100 | > 100 | – | – |
| CC(=O)NC(CCCNC(=O)NCCCl)C(=O)NCc1ccccc1 (stereo not drawn) | – | > 100 | > 100 | – | – | – | > 100 | > 100 | > 100 | > 100 | > 100 | > 100 | > 100 | > 100 | > 100 | > 100 | > 100 | > 100 | – | – |
